Measured values from PMC9953353 (2023).

What was measured:
[1] = system: Thi-5R-18 (DNA, aptamer) ATAGGAGTCACGACGACCAGAAGGGCAAATAGCATAATGGATCACATTAGATGAGCCCAGGCTATGTGCGTCTACCTCTTGACTAAT; assay: AuNP colorimetric aptasensor; conditions: NaCl 0.25 M added for aggregation; 10^−7 M tested; response below one tenth of thiamethoxam at 10^−8 M
[2] = system: truncated Thi-5R-18 (DNA, aptamer) GAAGGGCAAATAGCATAATGGATCACATTAGATGAGCCCAGGCTATGTGCG; assay: isothermal titration calorimetry; conditions: 5 mM KCl, 100 mM NaCl, 1 mM MgCl2; 50 mM Tris-HCl, pH 7.4, 25 °C; Kd could not be fitted; thiamethoxam 1 mM
[3] = system: Thi-5R-18 (DNA, aptamer) ATAGGAGTCACGACGACCAGAAGGGCAAATAGCATAATGGATCACATTAGATGAGCCCAGGCTATGTGCGTCTACCTCTTGACTAAT; assay: isothermal titration calorimetry; conditions: 5 mM KCl, 100 mM NaCl, 1 mM MgCl2; 50 mM Tris-HCl, pH 7.4, 25 °C; 25 μM aptamer, 1 mM thiamethoxam

Row | SMILES | binding [1] | binding [2] | Kd [3] [µM]
1 | CNC(=N[N+](=O)[O-])NCC1CCOC1 (stereo not drawn) | weak |  | 
2 | O=C(O)CNCP(=O)(O)O | weak |  | 
3 | O=[N+]([O-])N=C1NCCN1Cc1ccc(Cl)nc1 | weak |  | 

The remaining lines, values ahead:

Row | binding [1] | binding [2] | Kd [3] [µM] | SMILES
4 | weak |  |  | CN/C(=N\[N+](=O)[O-])NCc1cnc(Cl)s1
5 |  | no | 49.35 | CN1COCN(Cc2cnc(Cl)s2)C1=N[N+](=O)[O-]
